{"source": "patent US9562899B2", "about": "“Method of detecting OXA-048 carbapenemase producing bacteria” (BIOMÉRIEUX, priority 2012, dated 2017)", "key": {"[1]": {"system": "KPC, AmpC and MBL strains", "details": "disk comprising 30 μg of temocillin; Rosco; cited from earlier work"}, "[2]": {"system": "OXA-48 strains", "assay": "Temocillin MIC, agar dilution (Example 1)", "assay_type": "cell-based, Enterobacteriaceae", "method": "(§1) Determination of the MICs with Respect to Temocillin for a Panel of CPE Strains (Using the Agar Dilution Method)\n(§2) Reaction medium: the base is a chromLD™ CPS medium (bioMérieux, ref. 43821-43829), comprising a chromogenic substrate for beta-glucuronidase, a chromogenic substrate for beta-glucosidase, a chromogenic substrate for beta-galactosidase and a substrate for deaminase. Temocillin is added to this base medium at the concentrations indicated hereinafter.\n(§3) Temocillin range tested: 50-150-200-300 mg/l (disodium temocillin, Eumedica SA, Manage, Belgium).\n(§4) The media are inoculated by depositing a spot: 1 μl of a microbial suspension in physiological saline at 0.5 McF, diluted to 1/10.\n(§5) Incubation for 24 h at 37° C.\n(§6) Reading after incubation for 24 hours. The medium with the smallest temocillin concentration on which a negative growth spot is obtained will be retained as the MIC. The spots having only 3 colonies or less or a total absence of growth were considered to be negative."}, "[3]": {"system": "Non-OXA-48 strains", "assay": "Temocillin MIC, agar dilution (Example 1)", "assay_type": "cell-based, Enterobacteriaceae", "method": "as §1, §2, §3, §4, §5, §6"}, "[4]": {"system": "KPC strains", "assay": "Temocillin MIC, agar dilution (Example 1)", "assay_type": "cell-based, Enterobacteriaceae", "details": "Ex 1; temocillin alone; MIC in mg/l", "method": "as §1, §2, §3, §4, §5, §6"}, "[5]": {"details": "Ex 1, temocillin alone, MIC in mg/l"}}}
{"smiles": "CO[C@@]1(NC(=O)C(C(=O)O)c2ccsc2)C(=O)N2[C@@H](C(=O)O)C(C)(C)S[C@@H]21", "note": "(some centres unmarked) [temocillin]", "values": [{"measurement": "inhibition of strains by temocillin disk", "setting": "[1]", "result": "does not inhibit all KPC, AmpC and MBL strains"}, {"measurement": "MIC", "setting": "[2]", "result": "> 300", "unit": "µg/mL"}, {"measurement": "No. of OXA-48 strains with MIC 150", "setting": "[2]; [5]", "result": 0}, {"measurement": "No. of OXA-48 strains with MIC 200", "setting": "[2]; [5]", "result": 0}, {"measurement": "No. of OXA-48 strains with MIC 300", "setting": "[2]; [5]", "result": 0}, {"measurement": "No. of OXA-48 strains with MIC >300", "setting": "[2]; [5]", "result": 15}, {"measurement": "No. of OXA-48 strains with MIC ≦50", "setting": "[2]; [5]", "result": 1}, {"measurement": "MIC", "setting": "[3]; most of the non-OXA-48 strains", "result": "≤ 200", "unit": "µg/mL"}, {"measurement": "MIC", "setting": "[3]; only a few non-OXA-48 strains", "result": "> 300", "unit": "µg/mL"}, {"measurement": "No. of KPC strains with MIC 150", "setting": "[4]", "result": 1}, {"measurement": "No. of KPC strains with MIC 200", "setting": "[4]", "result": 0}, {"measurement": "No. of KPC strains with MIC 300", "setting": "[4]", "result": 0}, {"measurement": "No. of KPC strains with MIC >300", "setting": "[4]", "result": 3}, {"measurement": "No. of KPC strains with MIC ≦50", "setting": "[4]", "result": 8}]}
